Source: patent US20240158348A1, “HERBICIDAL CYCLIC AMIDES N-SUBSTITUTED WITH A HALOALKYLSULFONYLANILIDE GROUP” (FMC Corporation, priority 2021, published 2024)

Tests used:
Format in all cases: in vivo
[1] = test system: corn (Zea mays); assay: Test C preemergence, corn; settings: 0 is no effect, 100 is complete control
In short: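 Steps: sow in loam soil blended with sand; treat soil preemergence by directed spray, or treat young plants (2–10 cm, one to two leaves) postemergence; hold in greenhouse 10 or 12 days; rate injury visually relative to untreated controls on a 0–100 scale.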

[2] = test system: foxtail, giant (giant foxtail, Setaria faberi); assay: Test C preemergence, giant foxtail; settings: 0 is no effect, 100 is complete control
In short: (§1)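 Plants grown in a sand and loam soil blend received the formulated test chemicals either as a preemergence soil-directed spray or postemergence at 2 to 10 cm height. After 10 or 12 greenhouse days, injury was assessed visually, with 100 meaning complete control.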

[3] = test system: oat, wild (wild oat, Avena fatua); assay: Test C preemergence, wild oat; settings: 0 is no effect, 100 is complete control
In short: as §1

[4] = test system: soybean (Glycine max); assay: Test C preemergence, soybean; settings: 0 is no effect, 100 is complete control
In short: as §1

[5] = test system: blackgrass (Alopecurus myosuroides); assay: Test C postemergence, blackgrass; settings: visual injury, 0 to 100 scale (0 no effect, 100 complete control)
In short: as §1

[6] = test system: kochia (Bassia scoparia); assay: Test C postemergence, kochia; settings: for Kochia plant response rating: visual injury, 0 to 100 scale (0 no effect, 100 complete control); for Plant response rating (0 to 100 scale), Kochia: 0 is no effect, 100 is complete control
In short: as §1

[7] = test system: pigweed, palmer (palmer amaranth, Amaranthus palmeri); assay: Test C postemergence, palmer amaranth; settings: for Pigweed, Palmer plant response rating: visual injury, 0 to 100 scale (0 no effect, 100 complete control); for Plant response rating (0 to 100 scale), Pigweed, Palmer: 0 is no effect, 100 is complete control
In short: as §1

[8] = test system: ducksalad (Heteranthera limosa); assay: Test D flooded paddy test, ducksalad; set-up: key: 0 = no effect, 100 = complete control; settings: 250 g ai/ha, Flood; applied to paddy water at 2-leaf stage; visual rating after 13 days; scale 0 (no effect) to 100 (complete control)
In short: (§2)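 2-leaf plants; flood 3 cm over soil; cpd into paddy water; depth maintained; greenhouse 13 d; visual rating vs controls, 0 = no effect, 100 = complete control; dash = no result.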

[9] = test system: rice (Oryza sativa); assay: Test D flooded paddy test, rice; set-up: key: 0 = no effect, 100 = complete control; settings: 250 g ai/ha, Flood; applied to paddy water at 2-leaf stage; visual rating after 13 days; scale 0 (no effect) to 100 (complete control)
In short: as §2

| SMILES | Plant response rating (0 to 100 scale), Corn ([1]; 31 g ai/ha Preemergence) | Plant response rating (0 to 100 scale), Corn ([1]; 125 g ai/ha Preemergence) | Plant response rating (0 to 100 scale), Foxtail, Giant ([2]; 31 g ai/ha Preemergence) | Plant response rating (0 to 100 scale), Foxtail, Giant ([2]; 125 g ai/ha Preemergence) | Plant response rating (0 to 100 scale), Oat, Wild ([3]; 31 g ai/ha Preemergence) | Plant response rating (0 to 100 scale), Oat, Wild ([3]; 125 g ai/ha Preemergence) | Plant response rating (0 to 100 scale), Soybean ([4]; 31 g ai/ha Preemergence) | Plant response rating (0 to 100 scale), Soybean ([4]; 125 g ai/ha Preemergence) | Blackgrass plant response rating ([5]; 31 g ai/ha Postemergence) | Kochia plant response rating ([6]; 31 g ai/ha Postemergence) | Plant response rating (0 to 100 scale), Kochia ([6]; 125 g ai/ha Postemergence) | Pigweed, Palmer plant response rating ([7]; 31 g ai/ha Postemergence) | Plant response rating (0 to 100 scale), Pigweed, Palmer ([7]; 125 g ai/ha Postemergence) | Plant response rating, Ducksalad [8] | Plant response rating, Rice [9] | Blackgrass plant response rating ([5]; 125 g ai/ha Postemergence) | Kochia plant response rating ([6]; 125 g ai/ha Postemergence) | Pigweed, Palmer plant response rating ([7]; 125 g ai/ha Postemergence) |
| --- | --- | --- | --- | --- | --- | --- | --- | --- | --- | --- | --- | --- | --- | --- | --- | --- | --- | --- |
| C#CCO/N=C1\CCN(c2cc(NS(=O)(=O)C(F)(F)F)c(C)cc2C)C1=O [Compound 13, N-[2,4-dimethyl-5-[2-oxo-3-[(2-propyn-1-yloxy)imino]-1-pyrrolidinyl]phenyl]-1,1,1-trifluoromethanesulfonamide] | 40 | 100 | 100 | 100 | 100 | 100 | 80 | 100 | 80 | 90 | 90 | 80 | 90 | 100 | 35 |  |  |  |
| Cc1cc(C)c(N2CC/C(=N\O)C2=O)cc1NS(=O)(=O)C(F)(F)F [Compound 10, 1,1,1-trifluoro-N-[5-[3-(hydroxyimino)-2-oxo-1-pyrrolidinyl]-2,4-dimethylphenyl]methanesulfonamide] | 30 | 90 | 90 | 100 | 90 | 100 | 60 | 70 | 60 | 60 | 90 | 60 | 90 | 90 | 0 |  |  |  |
| Cc1cc(C)c(N(COC(=O)C(C)(C)C)S(=O)(=O)C(F)(F)F)cc1N1CCC(OCC2CCC2)C1=O (stereo not drawn) [Compound 56] | 0 | 10 | 0 | 80 | 0 | 0 | 0 | 30 | 0 | 0 |  | 0 |  | 85 | 0 | 20 | 30 | 40 |
| Cc1c(NS(=O)(=O)C(F)(F)F)cc(N2CCC(OCC3CCC3)C2=O)c(C)c1F (stereo not drawn) [Compound 64] | 10 | 60 | 100 | 100 | 20 | 90 | 40 | 90 | 0 | 50 |  | 60 |  | 80 | 15 | 20 | 100 | 70 |
| Cc1cc(C)c(N2CCC(OCC3CCC3(F)F)C2=O)cc1NS(=O)(=O)C(F)(F)F (stereo not drawn) [Compound 52] | 10 | 90 | 90 | 100 | 20 | 90 | 30 | 50 | 20 | 20 |  | 0 |  | 90 | 0 | 40 | 70 | 40 |
